Data: ChEMBL document CHEMBL4706557, “Synthesis and in vitro and in vivo biological evaluation of novel derivatives of flexicaulin A as antiproliferative agents” (Eur J Med Chem, 2020)
Activity calls are given as the source filed them. The rule behind the calls is not given here.

Assays:
HUVEC [1] = assay: Cytotoxicity against HUVEC assessed as reduction in survival rate after 24 to 72 hrs by SRB assay; format: cell-based; settings: human, time 24-72 hrs
ECa-109 cell line [2] = assay: Induction of apoptosis in human EC-109 cells assessed as apoptotic rate at 3 uM after 48 hrs by Annexin V-FITC/propidium iodide staining based flow cytometry (reference value: 3.2 %); format: functional
MGC-803 = assay: Antiproliferative activity against human MGC-803 cells assessed as inhibition of cell growth incubated for 72 hrs by SRB assay; format: functional, cell-based; settings: MGC-803, 72 h
ECa-109 cell line [3] = assay: Induction of apoptosis in human EC109 cells assessed as change in phosphorylated MKK4 expression at 3 uM incubated for 24 hrs in presence of N-acetylcysteine by Western blot analysis; format: functional, cell-based
ECa-109 cell line [4] = assay: Induction of apoptosis in human EC109 cells assessed as increase in Bad expression after 24 hrs by Western blot analysis; format: functional, cell-based
ECa-109 cell line [5] = assay: Induction of apoptosis in human EC109 cells assessed as increase in BimL expression after 24 hrs by Western blot analysis; format: functional, cell-based
[6] = Toxicity in BALB/c mouse assessed as effect on glomeruli in kidney at 20 to 40 mg/kg, ip administered once daily for 14 days by HE staining based assay; format: organism-based; settings: in vivo, 336 h, dose 20-40 mg/kg, time 14 day
ECa-109 cell line [7] = assay: Induction of apoptosis in human EC-109 cells xenografted in nude BALB/c mouse assessed as reduction in number of cells at 20 to 40 mg/kg, ip administered once daily for 14 days by H and E staining based histopathological analysis; format: functional, organism-based; settings: dose 20-40 mg/kg, time 14.0 day
ECa-109 cell line [8] = assay: Induction of apoptosis in human EC-109 cells xenografted in BALB/c mouse assessed as increase in cleaved caspase 9 in tumor tissue at 40 mg/kg, ip QD for 14 days by Western blotting analysis relative to control; format: functional, organism-based; settings: time 14.0 day
HUVEC [9] = assay: Cytotoxicity against HUVEC assessed as inhibition of cell growth incubated for 72 hrs by SRB assay; format: cell-based; settings: Homo sapiens
ECa-109 cell line [10] = assay: Induction of apoptosis in human EC109 cells assessed as reduction in Bcl-2 protein expression incubated for 24 hrs by Western blot analysis; format: functional, cell-based
ECa-109 cell line [11] = assay: Induction of apoptosis in human EC-109 cells assessed as apoptotic rate at 3 uM preincubated with N-acetylcysteine for 4 hrs followed by compound addition and measured after 24 hrs by Annexin V-FITC/propidium iodide staining based flow cytometry (reference value: 5.7 %); format: functional
ECa-109 cell line [12] = assay: Induction of apoptosis in human EC109 cells assessed as increase in intracellular ROS level at 3 uM preincubated with N-acetylcysteine for 4 hrs followed by compound addition and incubated for 24 hrs by DCFH-DA staining based flow cytometry analysis (reference value: 0.6 %); format: functional
GES1 = assay: Cytotoxicity against human GES1 cells assessed as reduction in survival rate after 24 to 72 hrs by SRB assay; format: cell-based; settings: time 24-72 hrs
ECa-109 cell line [13] = assay: Induction of apoptosis in human EC109 cells assessed as increase in BimS expression after 24 hrs by Western blot analysis; format: functional, cell-based
ECa-109 cell line [14] = assay: Induction of morphological changes in human EC109 cells assessed as decrease in number of cells; format: functional, cell-based
ECa-109 cell line [15] = assay: Induction of apoptosis in human EC-109 cells assessed as apoptotic rate at 0.75 uM after 48 hrs by Annexin V-FITC/propidium iodide staining based flow cytometry (reference value: 3.2 %); format: functional
ECa-109 cell line [16] = assay: Induction of apoptosis in human EC109 cells assessed as activation of c-jun phosphorylation at Ser63 residue at 0.75 to 3 uM incubated for 24 hrs by Western blot analysis; format: functional, cell-based; settings: dose 0.75-3 µM
ECa-109 cell line [17] = assay: Induction of apoptosis in human EC-109 cells assessed as apoptotic rate at 0.75 uM after 24 hrs by Annexin V-FITC/propidium iodide staining based flow cytometry (reference value: 5.3 %); format: functional
[18] = Toxicity in BALB/c mouse assessed as MCV at 40 mg/kg, ip administered once daily for 14 days (reference value: 49.90 +/- 0.37 fL); format: organism-based; settings: in vivo, 336 h, time 14 day
ECa-109 cell line [19] = assay: Induction of mitochondrial depolarization in human EC-109 cells assessed as depolarized cell population at 0.75 uM measured after 24 hrs by JC1 dye based flow cytometry (reference value: 4.2 %); format: functional
ECa-109 cell line [20] = assay: Induction of apoptosis in human EC109 cells assessed as increase in cleaved PARP expression after 24 hrs by Western blot analysis; format: functional, cell-based
ECa-109 cell line [21] = assay: Induction of morphological changes in human EC109 cells assessed as decrease in number of cells in presence of N-acetylcysteine; format: functional, cell-based
[22] = Toxicity in BALB/c mouse assessed as MCV at 20 mg/kg, ip administered once daily for 14 days (reference value: 49.90 +/- 0.37 fL); format: organism-based; settings: in vivo, 336 h, time 14 day
MCF7 = assay: Antiproliferative activity against human MCF7 cells assessed as inhibition of cell growth incubated for 72 hrs by SRB assay; format: functional, cell-based; settings: MCF7, 72 h
ECa-109 cell line [23] = assay: Induction of mitochondrial depolarization in human EC-109 cells assessed as depolarized cell population at 3 uM preincubated with N-acetylcysteine for 4 hrs followed by compound addition and measured after 24 hrs by JC1 dye based flow cytometry (reference value: 4.2 %); format: functional
ECa-109 cell line [24] = assay: Induction of morphological changes in human EC109 cells assessed as appearance of contracted and rounded cells in presence of N-acetylcysteine; format: functional, cell-based

Which Activity (HUVEC [1]) does the source give for `C=C1C(=O)[C@@]23[C@H](O)C[C@@H]4C(C)(C)CCC[C@@]4(COC(C)=O)[C@@H]2[C@@H](O)C[C@H]1[C@H]3OC(=O)c1ccc(CCl)cc1` here?
The Activity was “Dose-dependent effect”.

And the Activity (ECa-109 cell line [2])?
The Activity was 97%.

And the IC50 (MGC-803)?
The IC50 was 200 nM.

What about the Activity (ECa-109 cell line [3]) of the same molecule?
The Activity was “inactive”.

And the Activity (ECa-109 cell line [4])?
The Activity was “Dose-dependent effect”.

What about the Activity (ECa-109 cell line [5]) of the same molecule?
Its Activity is “Dose-dependent effect”.

What about the Activity [6] of the same molecule?
Its Activity is “Non-Toxic”.

And the Activity (ECa-109 cell line [7])?
The Activity was “Active”.

And the Activity (ECa-109 cell line [8])?
Its Activity is “Active”.

And the IC50 (HUVEC [9])?
The IC50 was 490 nM.

What about the Activity (ECa-109 cell line [10]) of the same molecule?
The Activity was “Dose-dependent effect”.

What about the Activity (ECa-109 cell line [11]) of the same molecule?
Its Activity is 5.6%.

And the Activity (ECa-109 cell line [12])?
The Activity was 0.1%.

What about the “inhibition (INH)” value (GES1) of the same molecule?
The value was “Dose-dependent effect”.

And the Activity (ECa-109 cell line [13])?
The Activity was “Dose-dependent effect”.

And the Activity (ECa-109 cell line [14])?
The Activity was “Active”.

What about the Activity (ECa-109 cell line [15]) of the same molecule?
Its Activity is 78.9%.

And the Activity (ECa-109 cell line [16])?
Its Activity is “Active”.

What about the Activity (ECa-109 cell line [17]) of the same molecule?
Its Activity is 23.3%.

What about the Activity [18] of the same molecule?
Its Activity is 49.36 fL.

And the Activity (ECa-109 cell line [19])?
The Activity was 26.3%.

And the Activity (ECa-109 cell line [20])?
The Activity was “Dose-dependent effect”.

And the Activity (ECa-109 cell line [21])?
Its Activity is “inactive”.

What about the Activity [22] of the same molecule?
The Activity was 49.5 fL.

And the IC50 (MCF7)?
Its IC50 is 350 nM.

What about the Activity (ECa-109 cell line [23]) of the same molecule?
The Activity was 4%.

And the Activity (ECa-109 cell line [24])?
Its Activity is “inactive”.
